Data as given in PubChem BioAssay AID1963440 (Molecular Pharmacology Branch, DTP, NCI, 2024).
pIC50: −log10 of the molar value.

Test system: NCI-H1417 complex spheroids, growth % test/control
Assay: Anticancer human tumor NCI-H1417 cell line growth inhibition [Asc];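 also: spheroids exposed to compounds for 7 days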;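 as to viability, T/C: 100% = DMSO vehicle control wells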
Conditions: for pIC50: curve of first compound; for viability, T/C: stronger effect = lower value; active = viability on the fitted dose curve at most 10% of control; inactive = the rest
Method in brief: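 Complex solid-tumor spheroids incorporating human endothelial and mesenchymal stem cells received single agents or combinations over half-log dilution ranges anchored to clinical Cmax.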

C#Cc1c(F)ccc2cc(O)cc(-c3ncc4c(N5CC6CCC(C5)N6)nc(OCC56CCCN5CC(F)C6)nc4c3F)c12 (stereo not given) + Cc1c(S(C)(=O)=O)c(-c2cc(F)cc(N3CCN(c4ccc(NS(=O)(=O)c5ccc(NC(CCN6CCC(C(=O)OCCCP(=O)(O)O)CC6)CSc6ccccc6)c(S(=O)(=O)C(F)(F)F)c5)cc4)CC3)c2)c(-c2ccc(Cl)cc2)n1C(C)C
> 7.50: pIC50 (second compound 0.316 µM) | pIC50 (second compound 1 µM) | pIC50 (second compound 3.16 µM) | pIC50 (second compound 10 µM)
inactive: viability, T/C (second compound 0.1 µM, first compound 0.0316 µM) 72% | viability, T/C (second compound 0.1 µM, first compound 0.1 µM) 83.9% | viability, T/C (second compound 0.1 µM, first compound 0.316 µM) 71.8% | viability, T/C (second compound 0.1 µM, first compound 1 µM) 75.8% | viability, T/C (second compound 0.1 µM, first compound 3.16 µM) 64.7% | viability, T/C (second compound 0.1 µM, first compound 10 µM) 35.7% | viability, T/C (second compound 0.316 µM, first compound 0.0316 µM) 42.6% | viability, T/C (second compound 0.316 µM, first compound 0.1 µM) 48% | viability, T/C (second compound 0.316 µM, first compound 0.316 µM) 34.8% | viability, T/C (second compound 0.316 µM, first compound 1 µM) 20.9% | viability, T/C (second compound 0.316 µM, first compound 3.16 µM) 12.9% | viability, T/C (second compound 1 µM, first compound 0.0316 µM) 12%
active: viability, T/C (second compound 0.316 µM, first compound 10 µM) 5.66% | viability, T/C (second compound 1 µM, first compound 0.1 µM) 10.5% | viability, T/C (second compound 1 µM, first compound 0.316 µM) 7.98% | viability, T/C (second compound 1 µM, first compound 1 µM) 5.31% | viability, T/C (second compound 1 µM, first compound 3.16 µM) 3.23% | viability, T/C (second compound 1 µM, first compound 10 µM) 4.53% | viability, T/C (second compound 3.16 µM, first compound 0.0316 µM) 3.15% | viability, T/C (second compound 3.16 µM, first compound 0.1 µM) 2.9% | viability, T/C (second compound 3.16 µM, first compound 0.316 µM) 3.53% | viability, T/C (second compound 3.16 µM, first compound 1 µM) 1.96% | viability, T/C (second compound 3.16 µM, first compound 3.16 µM) 1.85% | viability, T/C (second compound 3.16 µM, first compound 10 µM) 2.61% | viability, T/C (second compound 10 µM, first compound 0.0316 µM) 2.05% | viability, T/C (second compound 10 µM, first compound 0.1 µM) 2.06% | viability, T/C (second compound 10 µM, first compound 0.316 µM) 2.12% | viability, T/C (second compound 10 µM, first compound 1 µM) 1.68% | viability, T/C (second compound 10 µM, first compound 3.16 µM) 1.15% | viability, T/C (second compound 10 µM, first compound 10 µM) 2.22%
5.24: pIC50 (second compound 0.1 µM)

Cc1nc(N2CCC3(CC2)COC(C)C3N)c(CO)nc1Sc1ccnc(N)c1Cl (stereo not given) + Cc1c(S(C)(=O)=O)c(-c2cc(F)cc(N3CCN(c4ccc(NS(=O)(=O)c5ccc(NC(CCN6CCC(C(=O)OCCCP(=O)(O)O)CC6)CSc6ccccc6)c(S(=O)(=O)C(F)(F)F)c5)cc4)CC3)c2)c(-c2ccc(Cl)cc2)n1C(C)C
< 5.52: pIC50 (second compound 0.1 µM)
inactive: viability, T/C (second compound 0.1 µM, first compound 0.00949 µM) 81.4% | viability, T/C (second compound 0.1 µM, first compound 0.03 µM) 82% | viability, T/C (second compound 0.1 µM, first compound 0.0949 µM) 71.4% | viability, T/C (second compound 0.1 µM, first compound 0.3 µM) 64.8% | viability, T/C (second compound 0.1 µM, first compound 0.949 µM) 64.4% | viability, T/C (second compound 0.1 µM, first compound 3 µM) 52.6% | viability, T/C (second compound 0.316 µM, first compound 0.00949 µM) 46.9% | viability, T/C (second compound 0.316 µM, first compound 0.03 µM) 46.3% | viability, T/C (second compound 0.316 µM, first compound 0.0949 µM) 32.9% | viability, T/C (second compound 0.316 µM, first compound 0.3 µM) 23.9% | viability, T/C (second compound 0.316 µM, first compound 0.949 µM) 13.7% | viability, T/C (second compound 0.316 µM, first compound 3 µM) 12.2% | viability, T/C (second compound 1 µM, first compound 0.00949 µM) 12.4%
active: viability, T/C (second compound 1 µM, first compound 0.03 µM) 9.91% | viability, T/C (second compound 1 µM, first compound 0.0949 µM) 6.5% | viability, T/C (second compound 1 µM, first compound 0.3 µM) 3.75% | viability, T/C (second compound 1 µM, first compound 0.949 µM) 1.89% | viability, T/C (second compound 1 µM, first compound 3 µM) 0.84% | viability, T/C (second compound 3.16 µM, first compound 0.00949 µM) 2.34% | viability, T/C (second compound 3.16 µM, first compound 0.03 µM) 2.47% | viability, T/C (second compound 3.16 µM, first compound 0.0949 µM) 1.68% | viability, T/C (second compound 3.16 µM, first compound 0.3 µM) 1.09% | viability, T/C (second compound 3.16 µM, first compound 0.949 µM) 0.67% | viability, T/C (second compound 3.16 µM, first compound 3 µM) 0.5% | viability, T/C (second compound 10 µM, first compound 0.00949 µM) 2.47% | viability, T/C (second compound 10 µM, first compound 0.03 µM) 2.41% | viability, T/C (second compound 10 µM, first compound 0.0949 µM) 1.78% | viability, T/C (second compound 10 µM, first compound 0.3 µM) 1.37% | viability, T/C (second compound 10 µM, first compound 0.949 µM) 1.05% | viability, T/C (second compound 10 µM, first compound 3 µM) 1.2%
> 8.02: pIC50 (second compound 0.316 µM) | pIC50 (second compound 1 µM) | pIC50 (second compound 3.16 µM) | pIC50 (second compound 10 µM)
